According to patent publication US6495604B1, “Cycloalkene derivatives, process for producing the same, and use” (Takeda Chemical Industries, Ltd., priority 1998, dated 2002):
Each block holds one molecule with its values, some of them ahead of it.

How the values were obtained:
serum IL-1α = assay: Effect on increase in blood cytokine level (LPS-treated mice): IL-1α; format: in vivo, BALB/c mice; conditions: Mus musculus; 30 mg/kg orally 1 hour before LPS 10 mg/kg i.p.; serum 6 hours after LPS; vs control group
Method: (§1) As a result of a defense mechanism against an infection or an immune abnormality, various in vivo cytokines are produced. Accordingly, an experimental animal model was used to examine the effect of a test compound on the increase in the blood cytokine level.
(§2) Female BALB/c mice (6 weeks old) were purchased and acclimatized for 1 week and assigned to the groups in each of which 6 to 8 animals were included. In a treatment group, 30 mg/kg of a test compound suspended in a 0.5% aqueous solution of methyl cellulose was given orally. In a control group, the vehicle was given similarly. After 1 hour, LPS (10 mg/kg) was given intraperitoneally to each animal in the treatment and control groups, and the blood was taken 1 hour after the LPS administration and examined for the serum concentrations of TNF-α. IL-1α, IL-1β and IL-6 concentrations were determined using the serum from the blood taken 6 hours after the LPS administration. Each cytokine was determined using an assay kit manufactured by Amersham.

serum TNF-α = assay: Effect on increase in blood cytokine level (LPS-treated mice): TNF-α; format: in vivo, BALB/c mice; conditions: Mus musculus; 30 mg/kg orally 1 hour before LPS 10 mg/kg i.p.; serum 1 hour after LPS; vs control group
Method: as §1, §2

[1] = test system: IL-1α production, RAW264.7; assay: Cytokine production-inhibiting effect in RAW264.7: IL-1α; format: cell-based; conditions: Mus musculus, LPS 1.0 μg/ml in the absence of interferon gamma
Method: Using mouse macrophage cell line RAW264.7, a test compound was examined for its % inhibition of a cytokine production. The test compound was dissolved at 10 mM in N,N-dimethylformamide and dilutedwith an RPMI-1640 medium at the concentration of 0.1 mM. The concentration was further adjusted using the medium so that a final concentration ranging from 10 μM to 10 nM could be obtained by a 10-fold serial dilution and the test compound was added to a culture medium. On the day before the experiment, the cell was adjusted at 5×10^5/ml in an RPMI-1640 medium supplemented with 10% inactivated fetal calf serum and inoculated to a 96-well microplate at 1×10^5 cells/0.2 ml per well. After incubating at 37° C. under an atmosphere of 5% CO2/95% air overnight, the test compound adjusted as described above was added and then LPS and interferon-gamma were added at the final concentrations of 5 ng/ml and 1 U/ml, respectively. After further incubating overnight, culture supernatants were examined for the concentrations of TNF-α and IL-6. IL-1α was determined using 1.0 μg/ml of LPS in the absence of interferon gamma under otherwise similar conditions. Each cytokine was determined using an assay kit manufactured by Amersham. An IC50 represents the concentration of the test compound which inhibits 50% of the cytokine production.

serum IL-6 = assay: Effect on increase in blood cytokine level (LPS-treated mice): IL-6; format: in vivo, BALB/c mice; conditions: Mus musculus; 30 mg/kg orally 1 hour before LPS 10 mg/kg i.p.; serum 6 hours after LPS; vs control group
Method: as §1, §2

[2] = test system: NO production by RAW264.7 cell; assay: NO production-inhibiting effect in RAW264.7 cells (nitrite ion by DAN fluorescence); format: cell-based, mouse; conditions: LPS 5 ng/ml + interferon gamma 1 U/ml, nitrite ion in culture supernatant after overnight incubation
Method: Mouse macrophage cell line RAW264.7 was used as an iNOS-inducible cell and a test compound was examined for its % inhibition of NO production. The test compound was dissolved at 10 mM in N,N-dimethylformamide and diluted with an RPMI-1640 medium at the concentration of 0.1 mM. The concentration was further adjusted using the medium so that a final concentration ranging from 10 μM to 10 nM could be obtained by a 10-fold serial dilution and the test compound was added to a culture medium. On the day before the experiment, the cell was adjusted at 5×10^5/ml in an RPMI-1640 medium supplemented with 10% inactivated fetal calf serum and inoculated to a 96-well microplate at 1×10^5 cells/0.2 ml per well. After incubating at 37° C. under an atmosphere of 5% CO2/95% air overnight, the test compound adjusted as described above was added and then LPS and interferon gamma were added at the final concentrations of 5 ng/ml and 1 U/ml, respectively. After further incubating overnight, culture supernatants were examined for the concentration of nitrite ion (stable metabolite of NO) which was used as an index for the NO production. The nitrite ion concentration was determined by adding 25 μl of 20 μg/ml of 2,3-diaminonaphthalene (DAN) to 50 μl of the culture supernatant, followed by incubating at room temperature for 10 minutes, followed by adding 25 μl of 0.5 N NaOH, followed by determining a fluorescence at 450 nm (excitation wavelength: 365 nm). An IC50 represents the concentration of the test compound which inhibits 50% of the NO production.

serum IL-1β = assay: Effect on increase in blood cytokine level (LPS-treated mice): IL-1β; format: in vivo, BALB/c mice; conditions: Mus musculus; 30 mg/kg orally 1 hour before LPS 10 mg/kg i.p.; serum 6 hours after LPS; vs control group
Method: as §1, §2

[3] = test system: blood nitric oxide concentration (NOx); assay: Effect on increase in blood nitric oxide level (LPS-treated mice); format: in vivo, BALB/c mice; conditions: Mus musculus; 30 mg/kg orally 1 hour before LPS 10 mg/kg i.p.; serum nitrite+nitrate 6 hours after LPS; vs control group; read-out: Inhibition % of NO in blood
[4] = Mus musculus, RAW264.7, RAW264.7

IC50 [2, 4]: 0.39 µM
Molecule: CCOC(=O)C1=CCCC1S(=O)(=O)Nc1ccc(F)cc1F (stereo not shown) [Compound 58, ethyl 5-[N-(2,4-difluorophenyl)sulfamoyl]-1-cyclopentene-1-carboxylate]

IC50 [2, 4]: 0.54 µM
Molecule: CC(C)(C)OC(=O)COC(=O)C1=CCCCC1S(=O)(=O)Nc1ccc(F)cc1F (stereo not shown) [Compound 59, t-butyl [6-[N-(2,4-difluorophenyl)sulfamoyl]-1-cyclohexen-1-yl]carbonyloxyacetate]

IC50 [2, 4]: 7.9 µM
Molecule: O=C(O)COC(=O)C1=CCCCC1S(=O)(=O)Nc1ccc(F)cc1F (stereo not shown) [Compound 60, [6-[N-(2,4-difluorophenyl)sulfamoyl]-1-cyclohexen-1-yl]carbonyloxyacetic acid]

IC50 [2, 4]: 2.8 µM
Molecule: CCOC(=O)C1=CCCCCC1S(=O)(=O)Nc1ccc(F)cc1F (stereo not shown) [Compound 61, ethyl 7-[N-(2,4-difluorophenyl)sulfamoyl]-1-cycloheptene-1-carboxylate]

IC50 [2, 4]: 8.4 µM
Molecule: CCOC(=O)CNC(=O)c1ccc(NS(=O)(=O)C2CCCC=C2C(=O)OCC)c(Cl)c1 (stereo not shown) [Compound 63, ethyl 6-[N-[2-chloro-4-(N-ethoxycarbonylmethylcarbamoyl)phenyl]sulfamoyl]-1-cyclohexene-1-carboxylate]

IC50 [2, 4]: 0.25 µM
Molecule: CCOC(=O)C1=CCCC1S(=O)(=O)Nc1ccc(F)cc1Cl (stereo not shown) [Compound 64, ethyl 5-[N-(2-chloro-4-fluorophenyl)sulfamoyl]-1-cyclopentene-1-carboxylate]

IC50 [2, 4]: 0.32 µM
Molecule: CCOC(=O)C1=CCCCCC1S(=O)(=O)Nc1ccc(F)cc1Cl (stereo not shown) [Compound 65, ethyl 7-[N-(2-chloro-4-fluorophenyl)sulfamoyl]-1-cycloheptene-1-carboxylate]

IC50 [2, 4]: 8.1 µM
Molecule: CCOC(=O)C1=C(S(=O)(=O)Nc2ccc(F)cc2F)CCC1 [Compound 66, ethyl 2-[N-(2,4-difluorophenyl)sulfamoyl]-1-cyclopentene-1-carboxylate]

IC50 [2, 4]: 6 µM
Molecule: COc1ccc(N2C(=O)C3=C(CCCC3)S2(=O)=O)cc1 [Compound 67, 2-(4-methoxyphenyl)-4,5,6,7-tetrahydro-1,2-benzoisothiazole-3(2H)-one 1,1-dioxide]

IC50 [2, 4]: 5.1 µM
Molecule: O=C1C2=C(CCCC2)S(=O)(=O)N1c1ccc(F)cc1 [Compound 68, 2-(4-fluorophenyl)-4,5,6,7-tetrahydro-1,2-benzoisothiazol-3(2H)-one 1,1-dioxide]

IC50 [2, 4]: 6.8 µM
Molecule: O=C1C2=C(CCCC2)S(=O)(=O)N1c1ccc(OCC(F)(F)C(F)(F)F)cc1 [Compound 69, 2-[4-(2,2,3,3,3-pentafluoropropoxy)phenyl]-4,5,6,7-tetrahydro-1,2-benzisothiazol-3(2H)-one 1,1-dioxide]

IC50 [2, 4]: 0.35 µM
Molecule: O=C1C2=CCCCC2S(=O)(=O)N1c1ccc(F)cc1F (stereo not shown) [Compound 70, 2-(2,4-difluorophenyl)-5,6,7,7a-tetrahydro-1,2-benzoisothiazol-3(2H)-one 1,1-dioxide]

IC50 ([2]; RAW264.7): 0.005 µM
Molecule: d-ethyl 6-[N-(2,4-difluorophenyl)sulfamoyl]-1-cyclohexene-1-carboxylate [Compound 20]

The remaining lines, values behind:

Molecule: CCOC(=O)C1=CCCCC1S(=O)(=O)Nc1ccc(Cl)cc1F (stereo not shown) [Compound 1, ethyl 6-[N-(4-chloro-2-fluorophenyl)sulfamoyl]-1-cyclohexene-1-carboxylate]
inhibition at 30 mg/kg (serum IL-1α): 97%
inhibition at 30 mg/kg (serum TNF-α): 98%
IC50 [1]: 0.39 µM
inhibition at 30 mg/kg (serum IL-6): 89%
IC50 [2, 4]: 0.12 to 0.32 µM
inhibition at 30 mg/kg (serum IL-1β): 73%
inhibition at 30 mg/kg [3]: 76%

Molecule: CCOC(=O)C1=CCCCC1S(=O)(=O)Nc1ccc(F)cc1F (stereo not shown) [Compound 3, ethyl 6-[N-(2,4-difluorophenyl)sulfamoyl]-1-cyclohexene-1-carboxylate]
IC50 ([2]; RAW264.7): 0.013 to 0.039 µM
inhibition at 30 mg/kg [3]: 90%

Molecule: CCOC(=O)C1=CCCCC1S(=O)(=O)Nc1ccc(-n2cnnn2)cc1 (stereo not shown) [Compound 48, ethyl 6-[N-[4-(1H-tetrazol-1-yl)phenyl)sulfamoyl]-1-cyclohexene-1-carboxylate]
IC50 [2, 4]: 3.8 µM

Molecule: CCOC(=O)C1=CCCCC1S(=O)(=O)Nc1ccc(-n2ccnn2)cc1 (stereo not shown) [Compound 49, ethyl 6-[N-[4-(1H-1,2,3-triazol-1-yl)phenyl)sulfamoyl]-1-cyclohexene-1-carboxylate]
IC50 [2, 4]: 5.6 µM

Molecule: CCOC(=O)C1=CCCCC1S(=O)(=O)Nc1ccccc1C(F)(F)F (stereo not shown) [Compound 50, ethyl 6-[N-(2-trifluoromethylphenyl)sulfamoyl]-1-cyclohexene-1-carboxylate]
IC50 [2, 4]: 2 µM

Molecule: CCOC(=O)C1=CCCCC1S(=O)(=O)Nc1ccc(C(=O)OC)cc1 (stereo not shown) [Compound 51, ethyl 6-(N-(4-methoxycarbonylphenyl)sulfamoyl]-1-cyclohexene-1-carboxylate]
IC50 [2, 4]: 4 µM

Molecule: O=C(OCc1ccccc1)C1=CCCCC1S(=O)(=O)Nc1ccc(F)cc1F (stereo not shown) [Compound 52, benzyl 6-[N-(2,4-difluorophenyl)sulfamoyl]-1-cyclohexene-1-carboxylate]
IC50 [2, 4]: 4.3 µM

Molecule: CCOC(=O)C1=CCCCC1S(=O)(=O)Nc1ccc(CNC(=NC(=O)OC(C)(C)C)NC(=O)OC(C)(C)C)cc1 (stereo not shown) [Compound 53, ethyl 6-[N-[4-[2,3-bis(t-butoxycarbonyl)guanidinomethyl]phenyl]sulfamoyl]-1-cyclohexene-1-carboxylate]
IC50 [2, 4]: 2.4 µM

Molecule: CCOC(=O)C1=CCCCC1S(=O)(=O)Nc1ccc(C(=O)OC)cc1Cl (stereo not shown) [Compound 54, ethyl 6-[N-(2-chloro-4-methoxycarbonylphenyl)sulfamoyl]-1-cyclohexene-1-carboxylate]
IC50 [2, 4]: 2.3 µM

Molecule: CCOC(=O)C1=CCCCC1S(=O)(=O)Nc1ccc(C#N)cc1Cl (stereo not shown) [Compound 55, ethyl 6-[N-(2-chloro-4-cyanophenyl)sulfamoyl]-1-cyclohexene-1-carboxylate]
IC50 [2, 4]: 3.3 µM

Molecule: O=C(OCCO)C1=CCCCC1S(=O)(=O)Nc1ccc(F)cc1F (stereo not shown) [Compound 56, 2-hydroxyethyl 6-[N-(2,4-difluorophenyl)sulfamoyl]-1-cyclohexene-1-carboxylate]
IC50 [2, 4]: 1 µM

Molecule: CCOC(=O)C1=CCCCC1S(=O)(=O)Nc1ccc(-n2cncn2)cc1F (stereo not shown) [Compound 57, ethyl 6-[N-[2-fluoro-4-(IH-1,2,4-triazol-1-yl)phenyl)sulfamoyl]-1-cyclohexene-1-carboxylate]
IC50 ([2]; RAW264.7): 4.6 µM

Molecule: CCOC(=O)C1=CCCCC1S(=O)(=O)Nc1ccc(C(=O)NCC(=O)OC(C)(C)C)cc1Cl (stereo not shown) [Compound 62, ethyl 6-[N-[2-chloro-4-(N-t-butoxycarbonylmethylcarbamoyl)phenyl]sulfamoyl]-1-cyclohexene-1-carboxylate]
IC50 [2, 4]: 3.8 µM

Molecule: ethyl 6-[N-3-fluorophenyl]sulfamoyl)-1-cyclohexene-1-carboxylate [Compound 11]
IC50 ([2]; RAW264.7): 0.31 µM
